# In publication PMC9908594, “Biochemical characterization and identification of ferulenol and embelin as potent inhibitors of malate:quinone oxidoreductase from Campylobacter jejuni” (Frontiers in Molecular Biosciences, 2023):
# Values joined by “and” are separate entries in the source; they are usually repeats but may differ in a detail not shown here. Identical values can stand only once. Like-named read-outs stand apart in the source and are kept apart here.
# Assays:
# [1] = target: T1, CjMQO (Campylobacter jejuni, UniProt P56954); assay: Steady-state kinetics of purified CjMQO for substrates; type: biochemical; details: for V max / k cat / k cat /K m / K m for ubiquinone: UQ varied, malate fixed 10 mM; for K m for ubiquinone: pH 7.0, 37°C; for K m for malate: malate varied
# Experimental: (§1) The steady-state kinetic parameters of CjMQO were determined for malate and ubiquinone (UQ) with different side chain length (UQ0, UQ1, UQ2, UQ4, and dUQ; Supplementary Figure S3). The reaction mixture contained UQ, 1% (v/v) ethanol, 50 mM MOPS, 1 mM KCN and 0.2 μg/mL of purified CjMQO at the optimal pH (pH 7.0) and physiological temperature (37°C). The reduction of quinones was measured through the decrease in the absorbance at 278 nm ( ε278= 15 mM^-1 cm^-1). The Michaelis constant (K m) and maximum velocity (V max) of CjMQO for UQs were determined by varying the concentrations of UQs from 0.1 to 100 μM with the malate concentration fixed at 10 mM.
# (§2) Next, K m and V max of CjMQO for malate were determined by varying the concentrations from 0.5 to 50 mM at fixed concentrations of different UQs (100 μM for UQ0 and UQ1 and 10 μM for dUQ and UQ2). The apparent steady-state kinetic parameters were calculated by Michaelis-Menten equation using GraphPad Prism software (ver. 9.3.1, GraphPad Software, Inc., San Diego, California, United States). Following the protocol previously described for TgMQO ([Acharjee et al., 2021]), the reaction mechanism of CjMQO was analysed using malate and UQ1 as substrates. Briefly, CjMQO activity was measured at different UQ1 concentrations (2, 5, 10, 20, and 50 μM) with malate concentrations fixed at 0.5, 2, and 5 mM; the data were then analysed using a double reciprocal plot (Lineweaver-Burk plot) produced by utilizing intercept and slope calculated from steady-state kinetics parameters obtained by fitting the data to Michalis-Menten equation with GraphPad Prism software. The type of reaction mechanism was determined based on the characteristics of the lines plotted in the double reciprocal plot.
# [2] = tested on: TgMQO; parameters: method as in Acharjee et al., 2021; details: ref Acharjee et al., 2021, cited from earlier work
# [3] = tested on: human fibroblasts; parameters: method as in Feresin et al., 2003; details: ref Feresin et al., 2003, read-out: Toxic concentration IC50; cited from earlier work
# [4] = target: T1, CjMQO; assay: Inhibition mechanism of CjMQO (mixed-model fit, Lineweaver-Burk); type: biochemical; details: for K i versus UQ1: malate fixed (10 mM); for Inhibition type versus UQ1 (quinone): NC: noncompetitive; for K i versus malate: UQ1 fixed (50 μM)
# Experimental: The inhibition mechanism of the two compounds were investigated as described in a previous study ([Acharjee et al., 2021]). First, the inhibition mechanism versus UQ1 was assayed separately in a reaction mixture containing 50 mM MOPS pH 7.0, 1 mM KCN and 0.2 μg/mL of purified CjMQO containing a range of different ferulenol (0, 0.01, 0.02, and 0.04 μM) and embelin (0, 0.05, 0.1, and 0.15 μM) concentrations. Enzyme activity was measured at varying concentrations of UQ1 (5, 10, 20, 50, and 100 μM) and the reaction was initiated with 10 mM malate. Second, the inhibition mechanism versus malate was determined at 50 μM of UQ1, and the reaction was initiated with varying concentrations of malate (5, 10, 15, and 20 mM) and monitored at 278 nm, in singlets. The steady-state kinetics parameters, in the presence of inhibitors, were used to produce the Lineweaver-Burk plot. Next, the data were fitted to a mixed-type inhibition equation by a nonlinear-regression method using GraphPad Prism software. The intercept and slope from the primary plot (Lineweaver-Burk plot), were replotted as a function of the inhibitor. Finally, additional analysis was performed based on Dixon and Cornish Bowden plots in addition to the plot of Lineweaver-Burk to differentiate the types of inhibition mechanisms.
# [5] = tested on: C. jejuni ATCC29428; assay: C. jejuni growth inhibition, resazurin assay; type: cell-based, Campylobacter jejuni; details: for IC50: Mueller Hinton broth, 24 h, microaerophilic, 37°C, resazurin
# [6] = target: CjMQO (malate:quinone oxidoreductase from C. jejuni) (Campylobacter jejuni, UniProt P56954); assay: biochemical; type: biochemical; details: 50 mM MOPS pH 7.0, 100 μM UQ1, 1 mM KCN, 0.2 μg/mL CjMQO, 10 mM malate; read-out: IC50 on purified CjMQO
# [7] = tested on: PfMQO; parameters: method as in Hartuti et al., 2018; details: for dUQ; ref Hartuti et al., 2018; cited from earlier work
# [8] = tested on: human dermal fibroblast; parameters: method as in Hartuti et al., 2018; details: ref Hartuti et al., 2018, read-out: Cytotoxicity IC50; cited from earlier work
# [9] = tested on: TgMQO; parameters: method as in Acharjee et al., 2021; details: previously reported; ref Acharjee et al., 2021; cited from earlier work
# [10] = tested on: DLD-1 (colon cancer-derived); parameters: method as in Hartuti et al., 2018; details: ref Hartuti et al., 2018, read-out: Cytotoxicity IC50; cited from earlier work
# [11] = target: PfMQO (P. falciparum MQO) (Plasmodium falciparum, UniProt C6KT09); parameters: method as in Hartuti et al., 2018; details: previously reported; ref Hartuti et al., 2018; cited from earlier work
# [12] = tested on: Panc-1 (pancreatic cancer-derived); parameters: method as in Hartuti et al., 2018; details: ref Hartuti et al., 2018, read-out: Cytotoxicity IC50; cited from earlier work
# [13] = substrate: CCCCCCCCCCC1=C(C)C(=O)C(OC)=C(OC)C1=O; assay: Steady-state kinetics of purified CjMQO for substrates; type: biochemical; details: other: UQ varied, malate fixed 10 mM; pH 7.0; 37.0 °C
# Experimental: as §1, §2
# [14] = substrate: COC1=C(OC)C(=O)C(CC=C(C)C)=C(C)C1=O; assay: as above; type: biochemical; details: pH 7.0, 37.0 °C
# Experimental: as §1, §2
# [15] = substrate: O=C(O)CC(O)C(=O)O; assay: as above; type: biochemical; details: other: malate varied, pH 7.0, 37.0 °C
# Experimental: as §1, §2
# [16] = other: UQ varied, malate fixed 10 mM
# Sequence of PfMQO (P. falciparum MQO) (C6KT09 entry or part of it): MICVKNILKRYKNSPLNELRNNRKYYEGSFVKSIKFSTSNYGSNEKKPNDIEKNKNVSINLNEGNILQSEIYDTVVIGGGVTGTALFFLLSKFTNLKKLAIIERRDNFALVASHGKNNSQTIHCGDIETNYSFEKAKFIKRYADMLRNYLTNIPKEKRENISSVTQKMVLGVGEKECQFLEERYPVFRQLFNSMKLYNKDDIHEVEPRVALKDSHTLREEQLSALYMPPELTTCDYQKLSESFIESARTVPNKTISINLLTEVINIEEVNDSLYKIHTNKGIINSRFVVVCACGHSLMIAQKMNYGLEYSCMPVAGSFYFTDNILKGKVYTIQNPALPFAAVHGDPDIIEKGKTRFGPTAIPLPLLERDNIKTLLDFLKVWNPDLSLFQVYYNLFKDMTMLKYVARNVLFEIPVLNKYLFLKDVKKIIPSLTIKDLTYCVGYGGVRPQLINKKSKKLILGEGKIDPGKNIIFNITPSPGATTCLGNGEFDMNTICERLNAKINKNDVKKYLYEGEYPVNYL
molecule,measurement,setting,value
COC1=C(OC)C(=O)C(C/C=C(\C)CC/C=C(\C)CC/C=C(\C)CCC=C(C)C)=C(C)C1=O [UQ4],V max,[1],10 µmol/min/mg and 10.0 ± 1.0 µmol/min/mg
same,k cat,[1],43.9 ± 11.4 s⁻¹
same,k cat /K m,[1],5.3e+07 M⁻¹ s⁻¹
same,K m for ubiquinone,[1],0.8 µM and 0.80 ± 0.2 µM
same,Concentration above which substrate inhibition was observed,[1]; possibly due to low solubility in the assay condition,> 2 µM
"CCCCCCCCCCC1=C(C)C(=O)C(OC)=C(OC)C1=O [dUQ, decylubiquinone]",K m of TgMQO for ubiquinone,[2],17 µM
same,V max of TgMQO for ubiquinone,[2],12 µmol/min/mg
same,K m for ubiquinone,[1],8.5 µM and 8.50 ± 2.0 µM
"CCCCCCCCCCCC1=C(O)C(=O)C=C(O)C1=O [Embelin, 2,5-dihydroxy-3-undecyl-p-benzoquinone]",IC50,[3],739000 nM
same,"K m (apparent, mixed-model fit)","[4]; UQ1 varied, malate fixed",47 ± 6.3 µM
same,"V max (apparent, mixed-model fit)","[4]; UQ1 varied, malate fixed",164 ± 11 µmol/min/mg
same,α versus UQ1 (quinone),"[4]; UQ1 varied, malate fixed",0.998
same,K i versus UQ1,[4]; UQ1 varied,140 nM
same,Inhibition type versus UQ1 (quinone),"[4]; UQ1 varied, malate fixed",noncompetitive
same,Inhibition type versus malate,"[4]; malate varied, UQ1 fixed",Mixed
same,"K m (apparent, mixed-model fit)","[4]; malate varied, UQ1 fixed","2,225 ± 292 μM"
same,"V max (apparent, mixed-model fit)","[4]; malate varied, UQ1 fixed",71 ± 3 µmol/min/mg
same,α versus malate,"[4]; malate varied, UQ1 fixed",1.43
same,K i versus malate,[4]; malate varied,100 nM
same,Inhibition type versus malate,"[4]; malate varied, UQ1 fixed, listed as embelin",mixed-type
same,IC50,"[5]; Campylobacter jejuni, ATCC29428",21000 nM
same,Inhibition of growth of C. jejuni ATCC29428,[5]; at a concentration of 100 μM,completely inhibited
same,IC50,[6],87 nM
COC1=C(OC)C(=O)C(C/C=C(\C)CCC=C(C)C)=C(C)C1=O [UQ2],V max,[1],108 µmol/min/mg and 108 ± 10 µmol/min/mg
same,k cat,[1],485 ± 42.0 s⁻¹
same,k cat /K m,[1],1.07e+08 M⁻¹ s⁻¹
same,K m for ubiquinone,[1],4.6 µM and 4.60 ± 1.0 µM
"O=C(O)CC(O)C(=O)O (stereo not drawn) [Malate, sodium malate]",K m of TgMQO for malate,[2]; in the presence of UQ1,370 µM
same,K m of TgMQO for malate,[2]; in the presence of UQ2,637 µM
same,K m of TgMQO for malate,[2]; in the presence of dUQ,466 µM
same,K m for malate,[1]; UQ0 fixed (100 μM),298 ± 18 µM
same,K m for malate,"[1]; UQ0 fixed (100 μM), listed as malate",298 µM
same,K m for malate,[1]; UQ1 fixed (100 μM),882 ± 49 µM
same,K m for malate,"[1]; UQ1 fixed (100 μM), listed as malate",882 µM
same,K m for malate,[1]; UQ2 fixed (10 μM),"1,031 ± 93 μM"
same,K m for malate,"[1]; UQ2 fixed (10 μM), listed as malate","1,031 μM"
same,K m for malate,[1]; dUQ fixed (10 μM),"1,209 ± 160 μM"
same,K m for malate,"[1]; dUQ fixed (10 μM), listed as malate","1,209 μM"
same,K m of PfMQO for malate,[7],"5,990 μM"
COC1=C(OC)C(=O)C(CC=C(C)C)=C(C)C1=O [UQ1],K m of TgMQO for ubiquinone,[2],116 µM
same,V max of TgMQO for ubiquinone,[2],44 µmol/min/mg
same,K m for ubiquinone,[1],46 µM and 46.0 ± 3.1 µM
COC1=C(OC)C(=O)C(C)=CC1=O [UQ0],K m of TgMQO for ubiquinone,[2],225 µM
same,V max of TgMQO for ubiquinone,[2],13 µmol/min/mg
same,V max,[1],49 µmol/min/mg and 49.0 ± 2.4 µmol/min/mg
same,k cat,[1],219 ± 13.1 s⁻¹
same,k cat /K m,[1],1.3e+06 M⁻¹ s⁻¹
same,K m for ubiquinone,[1],168 µM and 168 ± 12.0 µM
"CC(C)=CCC/C(C)=C/CC/C(C)=C/Cc1c(O)c2ccccc2oc1=O [Ferulenol, ferulenol]",IC50,[8],65800 nM
same,IC50,[9],822 nM
same,IC50,[10],50100 nM
same,"K m (apparent, mixed-model fit)","[4]; UQ1 varied, malate fixed",42 ± 5 µM
same,"V max (apparent, mixed-model fit)","[4]; UQ1 varied, malate fixed",133 ± 7 µmol/min/mg
same,α versus UQ1 (quinone),"[4]; UQ1 varied, malate fixed",1.04
same,K i versus UQ1,[4]; UQ1 varied,20 nM
same,Inhibition type versus UQ1 (quinone),"[4]; UQ1 varied, malate fixed",noncompetitive
same,Inhibition type versus malate,"[4]; malate varied, UQ1 fixed",Mixed
same,"K m (apparent, mixed-model fit)","[4]; malate varied, UQ1 fixed","1,845 ± 201 μM"
same,"V max (apparent, mixed-model fit)","[4]; malate varied, UQ1 fixed",70 ± 2 µmol/min/mg
same,α versus malate,"[4]; malate varied, UQ1 fixed",2.66
same,K i versus malate,[4]; malate varied,10 nM
same,Inhibition type versus malate,"[4]; malate varied, UQ1 fixed, listed as ferulenol",mixed-type
same,IC50,[5],600 nM
same,IC50,[11],57 nM
same,IC50,[12],50200 nM
same,IC50,[6],18 nM
CjMQO (Campylobacter jejuni subsp. jejuni NCTC 11168 = ATCC 700819) (protein) MSQQEFDVLVIGAGISGAALFYELARYTNIKNIALIEKYNTAATLNSKGTSNSQTIHCGDIETNYTLEKARKVKRTADMIVKYGLMQNAQNNFMFSHQKMALAVGDIECDYMKKRYEEFKELYPYIKFFDKAKIKQIEPKVVLGEDCNQDRPENICAMGVESGEVFTTVDFGKMSINLIEQAQKQNKNTFVAFNQEIIHIEKKDDIFILKTSNHQEYHAKSVVVNAGAHSLYLAHKMNLGMDKSCWPVAGSFYLTKQKLLNGKVYMVQNPKLPFAALHGDPDLLADMNTRFGPTALVIPKLERYHGLKSVPEFFEALKLDKTVLKVTFNMFKDATIRNYIFYNYLFELPFVDKSLFVKDAKKIVPSLKASDIYYAKGFGGVRPQVIDKTKGELMLGEASITETPGIIFNMTPSPGATSCLGNAERDAKLVCNYLGMEFNEDKFSSELL,kcat,[13],343 ± 40.4 s⁻¹
same,kcat/Km,[13],4.02e+07 M⁻¹ s⁻¹
same,kcat,[14]; [16],480 ± 18.7 s⁻¹
same,kcat/Km,[14]; [16],1.05e+07 M⁻¹ s⁻¹
same,Km,[14]; other: malate fixed at 0.5 mM,16.3 µM
same,Km,[14]; other: malate fixed at 2 mM,23.8 µM
same,Km,[14]; other: malate fixed at 10 mM,32.6 µM
same,kcat,[15]; UQ0 fixed (100 μM),67 ± 1.1 s⁻¹
same,kcat/Km,[15]; UQ0 fixed (100 μM),200000 M⁻¹ s⁻¹
same,kcat,[15]; UQ1 fixed (100 μM),502 ± 55.6 s⁻¹
same,kcat/Km,[15]; UQ1 fixed (100 μM),600000 M⁻¹ s⁻¹
same,kcat,[15]; UQ2 fixed (10 μM),389 ± 7.6 s⁻¹
same,kcat/Km,[15]; UQ2 fixed (10 μM),400000 M⁻¹ s⁻¹
same,kcat,[15]; dUQ fixed (10 μM),210 ± 19.2 s⁻¹
same,kcat/Km,[15]; dUQ fixed (10 μM),200000 M⁻¹ s⁻¹
